This is an account of results in the CATMoS acute toxicity set (Mansouri et al. 2021).

The nature of the data set: GHS categories as the set defines them, by LD50: 1 up to 5, 2 up to 50, 3 up to 300, 4 up to 2000, 5 above 2000 mg/kg. The following applies: rat; in vivo; po.

`CC(O)CO[C@@H]1[C@@H](O)[C@H]2O[C@H]3[C@H](OCC(C)O)[C@@H](O)[C@@H](O[C@H]4[C@H](O)[C@@H](OCC(C)O)[C@@H](O[C@H]5[C@H](O)[C@@H](O)[C@@H](O[C@H]6[C@H](O)[C@@H](OCC(C)O)[C@@H](O[C@H]7[C@H](O)[C@@H](O)[C@@H](O[C@@H]1[C@@H](CO)O2)O[C@@H]7CO)O[C@@H]6CO)O[C@@H]5CO)O[C@@H]4CO)O[C@@H]3CO` (some centres undefined) yielded a GHS category of 5. `CCCCCCCCCCCCCCCC[Si](OC)(OC)OC` yielded a GHS category of 5. Under `CC1Cc2ccccc2N1NC(=O)c1ccc(Cl)c(S(N)(=O)=O)c1` (centres undefined) stands 5; under `Cc1c(N)nc(C(CC(N)=O)NCC(N)C(N)=O)nc1C(=O)NC(C(=O)NC(C)C(O)C(C)C(=O)NC(C(=O)NCCc1nc(-c2nc(C(=O)NCCCN[C@@H](C)c3ccccc3)cs2)cs1)C(C)O)C(O[C@@H]1O[C@@H](CO)[C@@H](O)[C@H](O)[C@@H]1O[C@H]1O[C@H](CO)[C@@H](O)[C@H](OC(N)=O)[C@@H]1O)c1c[nH]cn1` (some centres undefined), 5. Under `O=C(O)CCCC/C=C(\c1ccccc1)c1cccnc1` stands 5. As to `CCOC(=O)Cn1c(=O)sc2cccc(Cl)c21`, the GHS category is listed as 5.

The compound `O=S(=O)(O)CC(O)CNC1CCCCC1` (centres undefined) displayed a GHS category of 5. Under `CCCC/C=C\CCCCCCCCCC=O` stands 5; under `CC12C=CC(=O)C=C1CCC1C2CCC2(C)C(O)CCC12` (centres undefined), 5; under `Cc1ccc(C(=O)O)cc1[N+](=O)[O-]`, 5. `O=C1NC(=O)C2CC=CCC12` (centres undefined) gave a GHS category of 5. Regarding `CCCCCCCCCC(C)C(OC)OC` (centres undefined), the GHS category is 5. Under `CON=C(C(=O)N[C@@H]1C(=O)N2C(C(=O)OC(C)OC(C)=O)=C(COC(N)=O)CS[C@H]12)c1ccco1` (some centres undefined) stands 5; under `CC1CC(NC(N)=O)NC(=O)N1` (centres undefined), 5; under `C=CC(=O)OCCCOc1ccc(C(=O)Oc2ccc(OC(=O)c3ccc(OCCCOC(=O)C=C)cc3)c(C)c2)cc1`, 5.

As to `COc1ccccc1NC(=O)c1cc2ccccc2cc1O`, the GHS category came out at 5. Under `C[SiH]1O[SiH](C)O[SiH](C)O[SiH](C)O[SiH](C)O1` (centres undefined) stands 5; under `CC(=O)OCC(=O)[C@@]1(OC(C)=O)CC[C@H]2[C@@H]3C[C@@H](F)C4=CC(=O)C(Br)=C[C@]4(C)[C@@]3(F)[C@@H](O)C[C@@]21C`, 5.

`CC(C(=O)C(N)=O)c1ccc(N2Cc3ccccc3C2=O)cc1` (centres undefined) had a GHS category of 5.

For the compound `CN(C)CCSc1nc2ccccc2cc1-c1ccccc1`, the GHS category worked out at 4. As for `CCOC(=O)c1ccc(NC(=O)C=C(C)C=CC=C(C)C=CC2=C(C)CCCC2(C)C)cc1`, the GHS category was 5.

In turn, `CCCC(=O)OC[C@@H](OC(=O)CCC)[C@@H](OC(=O)CCC)[C@H](Cn1c2nc(=O)[nH]c(=O)c-2nc2cc(C)c(C)cc21)OC(=O)CCC` yielded a GHS category of 5.

On to `CCN(C(=O)SCc1ccccc1)C(C)C(C)C` (centres undefined), for which the GHS category turned out to be 5. `CCCCCCCC(=O)OCCC` had a GHS category of 5.

Regarding `CC1CCC(C(C)(C)O)CC1` (centres undefined), the GHS category amounted to 5.

`Cc1ccc(C(=O)COc2c(C(=O)c3ccc(Cl)c(C)c3Cl)c(C)nn2C)cc1` returned a GHS category of 5. As to `CCN(CC)CCC#N`, the GHS category was 4. In turn, `CC(C)(C)c1ccc(C(=O)CCCN2CCC(OC(c3ccccc3)c3ccccc3)CC2)cc1` yielded a GHS category of 5. Under `O=C(NNCc1ccccc1)C(O)C(O)C(O)CO` (centres undefined) stands 5; under `CC(C)NC(=O)N1CCc2nc(N=C(N)N)sc2C1`, 4. The result for `Cc1cccc(C)c1OP(=O)(Oc1c(C)cccc1C)Oc1c(C)cccc1C` reads 5; that for `COc1ccc2c(c1)CCN(c1ccccc1)C2c1cccc(Cl)c1` (centres undefined), 4. `Fc1ccccc1C1c2ccccc2CCN1c1cccc(C(F)(F)F)c1` (centres undefined) registered a GHS category of 4. The result for `CCCCC(CC)COC(=O)C1CCC(C(=O)OCC(CC)CCCC)CC1` (centres undefined) reads 5; that for `CC(C)=CCCC(C)C=O` (centres undefined), 5; that for `COC(=O)c1ccc(CNS(C)(=O)=O)cc1S(=O)(=O)NC(=O)Nc1nc(OC)cc(OC)n1`, 5. Under `CCN(CC)C(=O)C(C)Oc1cccc2ccccc12` (centres undefined) stands 5; under `Cl[Si](Cl)(C1CCCC1)C1CCCC1`, 5; under `COCC1CN(c2ccc(OCc3cccc(C#N)c3)cc2)C(=O)O1` (centres undefined), 5. Under `CCOC(=O)C(=O)Nc1cc(OCCOCCOC)ncn1` stands 4; under `CCCCCCCCCCCCCCCCCC(=O)OC`, 5. Compound `CCCCCCCCC(=O)OCC` had a GHS category of 5. In the case of `CCC(C)(CC)c1ccc(NC(=O)c2c(OC)cccc2OC)nn1`, the GHS category is on record as 4. The result for `CCCCC1OC(C)CC(C)(C)O1` (centres undefined) reads 5; that for `O=S(=O)(O)c1cc(O)ccc1O`, 5. `Cc1cccc2ncc(C(=O)NCC(C)(C)C)c(=O)n12`: the GHS category is reported as 3. The result for `CCCCCCCCCCCCCCCCCC(=O)OCC` reads 5. As to `O=C1CCc2c(OCC(O)CN3CCC(Cc4ccccc4)CC3)cccc2N1Cc1ccccc1` (centres undefined), the GHS category was found to be 4.

`O=COC1CCC2CCCCC2C1` (centres undefined) had a GHS category of 5. Regarding `CCOC[C@@H]1[C@@H](O)[C@H](O[C@H]2[C@H](O)[C@@H](OCC)[C@H](O)O[C@@H]2CO)O[C@H](COCC)[C@H]1O`, the GHS category is given as 5.

For `O=[N+]([O-])c1ccc(Nc2ccccc2)cc1`, the GHS category came out at 5. Under `C=C(C=CCC(O)C(O)C(O)CC=CC=CC(O)CC1OC(CC(O)C(O)CC2OC(C(O)C(O)CCC(O)C=CC(C)C(O)CC3(O)OC(CC(O)CCCCCCCC45CC(C)CC(C)(O4)C(CC(C)CCCCCC(O)C(O)C(O)C(O)C(O)C4OC(CC(O)C(O)C(C)=CC(O)CC(C)C(O)C(=O)NC=CC(=O)NCCCO)C(O)C(O)C4O)O5)C(O)C(O)C3O)CC(O)C2O)C(O)C(O)C1O)CCC(O)C(O)C(O)C(C)CC1OC(C=CC(O)C(O)CC2CC3CC(O2)C(CCC2OC(CN)CC2O)O3)C(O)C(O)C1O` (centres undefined) stands 1; under `NNC(=O)NN`, 5; under `CNC(=O)C(C#N)=c1[nH]c(=C2C(=O)NC(=O)NC2=O)c2ccccc12`, 5. The result for `C` reads 5; that for `CC(=O)OC1CCC(NCc2ccccc2N)CC1` (centres undefined), 5; that for `CCCCC1COCC(C)C1OC(C)=O` (centres undefined), 5. In the case of `CC(C)(C)c1cc2c(c(C(C)(C)C)c1)OP(=O)(O)Oc1c(cc(C(C)(C)C)cc1C(C)(C)C)C2`, the GHS category was found to be 5.

`C=CC(=O)O[Si](C(C)C)(C(C)C)C(C)C` gave a GHS category of 5. Under `CO/N=C(/C(=O)N[C@@H]1C(=O)N2C(C(=O)O)=C(CSc3cnns3)CS[C@H]12)c1csc(N)n1` stands 5; under `CCOCC1COC(Cn2cncn2)(c2cc3cc(Cl)cc(Cl)c3o2)O1` (centres undefined), 4. In the case of `Nc1cc(C(=O)O)ccc1Cl`, the GHS category is 5. In the case of `Cc1ncoc1C(N)=O`, the GHS category amounted to 5. Under `O=S(=O)(O)Cc1ccccc1` stands 4; under `CCCCOC(=O)CC(O)C(=O)OCCCC` (centres undefined), 5; under `COc1ccc(NC(=O)c2cc3ccccc3cc2O)cc1`, 5. Consider `COc1ccc([C@@H]2CC(=O)c3c(O)cc(O[C@@H]4O[C@H](CO[C@@H]5O[C@@H](C)[C@H](O)[C@@H](O)[C@H]5O)[C@@H](O)[C@H](O)[C@H]4O)cc3O2)cc1O`, for which the GHS category was 5. The result for `CCCc1c(Cc2ccc(-c3ccccc3-c3nn[nH]n3)cc2)c(NCCN2CCOCC2)nc2ncnn12` reads 4; that for `Cc1nc(N)sc1C(=O)N(C(C)C)C(C)C`, 4.

Take `NC(=O)Oc1ccccc1C(=O)Oc1ccc([N+](=O)[O-])cc1`: the GHS category is listed as 5. The result for `C=C(C)C(=O)OCCc1ccccc1` reads 5; that for `CC(C)=CCN(CC=C(C)C)CCC(C#N)(Cc1cccc2ccccc12)C(C)C` (centres undefined), 4; that for `CO[Si](CCCCl)(OC)OC`, 5. In turn, `CCOC(=O)C1=C(C)NC(C)=C(C(=O)OCCN2C(=O)c3ccccc3S2(=O)=O)C1C` (centres undefined) displayed a GHS category of 5. Regarding `CC(C)C(=O)OCC=Cc1ccccc1`, the GHS category came to 5. Under `CCCCCC1=C(CC(=O)OC)CCC1=O` stands 5; under `C=COCCOCCOC(=O)C=C`, 4; under `CCC(C)(CCC(C)C)C(=O)OCC1CO1` (centres undefined), 5. Under `CCOCCOC(=O)C(=O)Nc1nc(-c2ccccc2)cs1` stands 5.

The compound `CCOC(=O)c1c(N)sc2c1CCN(Cc1ccccc1)C2` showed a GHS category of 5. The result for `Cc1c(Cl)ccc(O)c1Cl` reads 5; that for `CCOC(=O)C1CCC(C(=O)OCC)CC1` (centres undefined), 5.

`Nc1c(Br)cc([N+](=O)[O-])cc1Br` came in with a GHS category of 4. `O=C(CCl)Nc1nc2cc(Cl)ccc2o1` registered a GHS category of 4.

Turning to `CC1CCC2C(C)(C)C3CC12CC1OC13C` (centres undefined), the GHS category is 5. In turn, `O=C1NC(=O)C(c2ccc(O)cc2)(c2ccc(O)cc2)N1` displayed a GHS category of 5. On to `Nc1nc2c(ncn2COCCO)c(=O)[nH]1`, for which the GHS category was 5. Under `C=C(C)C(=O)OCCNC(C)(C)C` stands 4; under `CCC(=O)NP(=O)(OC)SC` (centres undefined), 4. In the case of `CC[C@H](c1ccc(O)cc1)[C@@H](CC)c1ccc(O)cc1`, the GHS category was 5. For `Cc1cccc(C)c1OP(=O)(Oc1cccc(OP(=O)(Oc2c(C)cccc2C)Oc2c(C)cccc2C)c1)Oc1c(C)cccc1C`, the GHS category amounted to 5. Take `COc1ccc(Cl)cc1NC(=O)CC(C)=O`: the GHS category was 5. In turn, `Clc1ccc(CN2CCN=C2c2ccccc2)cc1` showed a GHS category of 4. Under `CC1(C)S[C@@H]2[C@H](NC(=O)[C@H](N)c3ccc(O)cc3)C(=O)N2[C@H]1C(=O)O` stands 5.
